One experiment has as its system LNCaP cell. The note with it: 10 nM DHT; cited from earlier work.
A further experiment relates to p27^KIP1. Put plainly: Western blot of p27KIP1 in PC-3(AR2) cells. In kind it is cell-based, human. The note with it: 10 nM DHT. The protocol: 41. […] (A) C2C12, COS-1, DU145 and PC-3 cell lines were co-transfected with 30 ng pSG5-AR, 0.5 μg MMTV-Luc, 1 ng pRL-SV40, various amounts of pSG5-bSV as indicated, and adjusted to total amount of 2 μg DNA with pSG5. The assay method was the same as FIG. 2. After measuring the luciferase activity, values relative to lane 1 were calculated. Results are the mean±S.D. of three independent experiments. (B) PC-3 was co-transfected with 30 ng pSG5-AR, 1.5 μg pSG5-bSV, 1 ng pRL-SV40, and 0.5 μg reporter gene as indicated by using SuperFect. […] (C) PC-3(AR2) cell line was transfected with EGFP or EGFP-bSV expressing vector using SuperFect. […] Proteins extracted from cells were loaded on 15% SDS-PAGE and analyzed by western blotting. The intensity of each p27 band was quantified and normalized with control protein which is a non-specific band pick up by the antibody in the same blot. The relative intensities to lane 1 were calculated.
478. Protein samples extracted from the cell were separated on 15% SDS-PAGE and transferred to nitrocellulose membranes. Membranes were incubated 1 h with 5% non-fat milk in TBST at room temperature, followed by the antibodies against p27^(KIP1) (Santa Cruz), followed by AP conjugated goat-antimouse antibody. Blots were developed using the AP developing reagent from Bio-Rad. Band intensity was quantitated by Collage® image analysis software (Fotodyne Inc.).
In general terms: Immunoblotting shows a protein as a band on a membrane.

Another experiment has as its system ARA70 and AR. The note with it: LNCaP cells; cited from earlier work.
Experiment [1] relates to AR. Description: AR reporter gene assay with gelsolin (Example 5). The experiment is classed as cell-based, human. The note with it: for effect on gelsolin enhanced AR activity: PC-3 cells, co-transfected flag-AR peptides. The text has this:
468. A C-terminal fragment of gelsolin (aa 281-731) was isolated from pACT2 encoding gelsolin, and inserted into pSG5-Gal4 DNA-binding domain (DBD) (constructed by Dr. R. Nakao). AR fragment (aa 36-918) was inserted into pCMX-VP16 (a gift from Dr. D. Chen). For gelsolin expression vector, a full-length cDNA fragment of gelsolin from LKCG, a gift from Dr. D. Kwiatkowski (Northwestern University, Evanston, Ill.), was inserted into pSG5. Dr. M. L. Lu (Harvard Medical School, Boston, Mass.) provided the p (ARE) 4-luciferase (LUC) plasmid. Dr. A. Mizokami (University of Kanazawa, Kanazawa, Japan) provided the pGL3-PSA6.0LUC plasmid. The expression plasmids of AR peptides were constructed by inserting the PCR amplified cDNA fragment of AR DBD into pFlag-CMV (Sigma) and the fragments of AR LBD into pCDNA-flag plasmid. Transfection protocol and reporter gene assay were described in previous report (Ting et al. Proc Natl Acad Sci USA 99, 661-666 (2002)).
Target sequence in this assay (P10275 with tags, fused parts or gaps DEL79-80/DUP473-473): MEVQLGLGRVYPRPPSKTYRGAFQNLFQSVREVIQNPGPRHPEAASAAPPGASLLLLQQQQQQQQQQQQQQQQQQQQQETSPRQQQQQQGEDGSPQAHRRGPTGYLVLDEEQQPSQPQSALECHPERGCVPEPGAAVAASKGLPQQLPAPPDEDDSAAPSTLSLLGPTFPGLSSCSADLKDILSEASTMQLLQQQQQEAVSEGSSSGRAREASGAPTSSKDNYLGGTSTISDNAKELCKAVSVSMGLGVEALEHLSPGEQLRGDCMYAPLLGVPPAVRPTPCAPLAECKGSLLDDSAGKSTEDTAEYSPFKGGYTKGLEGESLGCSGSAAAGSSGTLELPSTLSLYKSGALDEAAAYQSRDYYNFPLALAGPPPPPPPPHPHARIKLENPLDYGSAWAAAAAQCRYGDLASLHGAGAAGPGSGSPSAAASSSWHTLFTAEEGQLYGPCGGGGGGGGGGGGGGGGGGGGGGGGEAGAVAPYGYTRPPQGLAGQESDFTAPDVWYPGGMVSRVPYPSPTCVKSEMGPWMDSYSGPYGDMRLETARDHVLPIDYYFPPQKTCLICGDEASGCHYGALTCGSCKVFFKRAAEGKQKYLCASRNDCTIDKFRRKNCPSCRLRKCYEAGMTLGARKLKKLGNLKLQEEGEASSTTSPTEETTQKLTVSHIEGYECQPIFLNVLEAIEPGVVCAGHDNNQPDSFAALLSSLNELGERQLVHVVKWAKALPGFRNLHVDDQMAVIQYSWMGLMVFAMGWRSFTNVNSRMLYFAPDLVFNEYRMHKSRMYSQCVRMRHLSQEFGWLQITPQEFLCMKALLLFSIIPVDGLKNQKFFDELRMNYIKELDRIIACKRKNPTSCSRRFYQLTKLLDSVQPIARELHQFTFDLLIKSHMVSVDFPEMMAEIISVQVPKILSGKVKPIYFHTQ
(In general: A reporter such as luciferase makes a cellular process visible.)

For experiment [2], the target named is T1, AR N-terminus and AR C-terminus (Homo sapiens, UniProt P10275).
T1 construct: AR DBD plus LBD (GST-AR-DL); expressed in transfected cells; host or cells: PC-3 cells (human prostate cancer line)
T1 sequence (P10275 555-920 limits assumed): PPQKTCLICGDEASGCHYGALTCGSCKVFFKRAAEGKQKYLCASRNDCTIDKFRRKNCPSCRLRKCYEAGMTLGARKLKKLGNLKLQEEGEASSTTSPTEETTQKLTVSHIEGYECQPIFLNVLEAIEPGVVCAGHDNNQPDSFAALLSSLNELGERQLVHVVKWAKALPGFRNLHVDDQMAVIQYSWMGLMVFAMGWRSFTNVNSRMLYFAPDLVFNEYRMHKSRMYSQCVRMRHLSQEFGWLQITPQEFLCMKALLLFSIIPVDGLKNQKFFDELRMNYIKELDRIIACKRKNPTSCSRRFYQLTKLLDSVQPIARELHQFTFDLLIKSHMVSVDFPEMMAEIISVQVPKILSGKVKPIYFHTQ
T1 sequence (P10275 1-559 partner limits assumed): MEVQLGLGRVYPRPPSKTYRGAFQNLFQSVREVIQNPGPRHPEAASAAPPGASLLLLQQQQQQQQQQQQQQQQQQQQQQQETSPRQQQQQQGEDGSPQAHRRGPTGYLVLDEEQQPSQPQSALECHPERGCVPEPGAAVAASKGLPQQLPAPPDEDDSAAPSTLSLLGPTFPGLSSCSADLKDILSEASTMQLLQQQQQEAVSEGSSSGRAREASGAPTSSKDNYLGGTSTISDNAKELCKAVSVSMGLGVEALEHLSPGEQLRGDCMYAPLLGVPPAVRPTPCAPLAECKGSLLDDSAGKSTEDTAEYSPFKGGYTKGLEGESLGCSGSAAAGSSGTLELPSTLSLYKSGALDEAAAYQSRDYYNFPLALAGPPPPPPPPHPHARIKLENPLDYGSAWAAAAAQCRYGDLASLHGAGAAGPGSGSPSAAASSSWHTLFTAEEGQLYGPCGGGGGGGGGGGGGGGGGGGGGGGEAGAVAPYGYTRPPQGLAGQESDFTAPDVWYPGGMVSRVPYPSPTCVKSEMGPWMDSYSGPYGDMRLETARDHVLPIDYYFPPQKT
Put plainly: Mammalian two-hybrid assay of AR N-C interaction in PC-3 cells. The experiment is classed as cell-based. The note with it: DHT. The protocol: 44. […] PC-3 cells were transfected with 30 ng plasmids expressing Gal4(DBD)-AR-DL, VP16 or VP16-ARN combined with 1.5 μg pSG5, pSG5-bSV, -ARA55, or -SRC-1α as indicated. The reporter plasmid pG5-Luc (0.5 μg) and control plasmid pRL-Luc (1 ng) were transfected to every sample. The assay was carried out as described in FIG. 29C.
474. Mouse myoblast cell line (C2C12), human prostate cancer cell lines (PC-3 and DU145), and monkey kidney fibroblast cell line (COS-1) were maintained in Dulbecco's minimum essential medium (DMEM) containing penicillin (25 units/ml), streptomycin ([…]), and 10% fetal bovine serum (FBS). In mammalian two-hybrid assay, transfections were performed using the calcium phosphate precipitation method as described previously (15). Briefly, 1.5-3×10^5 cells were plated on 35-mm dishes for 24 h, and the medium was changed to DMEM containing 10% charcol-dextran stripped FBS (CD-FBS) 2 h before transfection. Cells were transfected with 0.5 μg plasmids expressing Gal4(DBD) and VP-16 fusion proteins as indicated. Gal4 response element controlled Firefly luciferase expression plasmid, pG5-Luc, was used as reporter gene. A Renilla luciferase expression plasmid pRL-SV40 was used as an internal control for transfection efficiency. The total amount of DNA was adjusted to 5 μg with pCMX-VP16 vectors. […]

The subject of experiment [3] is AR. Description: AR transactivation assay, MMTV-CAT reporter, transient transfection (Example 1). The experiment is classed as cell-based, human. The note with it: PC3 cells; TGF-β 5 ng/ml. As for the experimental part:
Human prostate cancer DU145 or PC3 cells, or human lung carcinoma cells NCI H1299 were grown in Dulbecco's minimal essential medium (DMEM) containing penicillin (25 U/ml), streptomycin (25˜g/ml), and 5% fetal calf serum (FCS). One hour before transfection, the medium was changed to DMEM with 5% charcoal-stripped FCS. […] A β-galactosidase expression plasmid, pCMV-β-gal, was used as an internal control for transfection efficiency.
The medium was changed 24 hr posttransfection and the cells treated with either steroid hormones or hydroxyflutamide, and cultured for an additional 24 hr. Cells were harvested and assayed for CAT activity after the cell lysates were normalized by using β-galactosidaseas an internal control. Chloramphenicol acetyltransferase (CA) activity was visualized by PhosphorImager (Molecular Dynamics) and quantitated by ImageQuant software (Molecular Dynamics).
Target sequence in this assay (P10275 whole entry, the tested form may be a part): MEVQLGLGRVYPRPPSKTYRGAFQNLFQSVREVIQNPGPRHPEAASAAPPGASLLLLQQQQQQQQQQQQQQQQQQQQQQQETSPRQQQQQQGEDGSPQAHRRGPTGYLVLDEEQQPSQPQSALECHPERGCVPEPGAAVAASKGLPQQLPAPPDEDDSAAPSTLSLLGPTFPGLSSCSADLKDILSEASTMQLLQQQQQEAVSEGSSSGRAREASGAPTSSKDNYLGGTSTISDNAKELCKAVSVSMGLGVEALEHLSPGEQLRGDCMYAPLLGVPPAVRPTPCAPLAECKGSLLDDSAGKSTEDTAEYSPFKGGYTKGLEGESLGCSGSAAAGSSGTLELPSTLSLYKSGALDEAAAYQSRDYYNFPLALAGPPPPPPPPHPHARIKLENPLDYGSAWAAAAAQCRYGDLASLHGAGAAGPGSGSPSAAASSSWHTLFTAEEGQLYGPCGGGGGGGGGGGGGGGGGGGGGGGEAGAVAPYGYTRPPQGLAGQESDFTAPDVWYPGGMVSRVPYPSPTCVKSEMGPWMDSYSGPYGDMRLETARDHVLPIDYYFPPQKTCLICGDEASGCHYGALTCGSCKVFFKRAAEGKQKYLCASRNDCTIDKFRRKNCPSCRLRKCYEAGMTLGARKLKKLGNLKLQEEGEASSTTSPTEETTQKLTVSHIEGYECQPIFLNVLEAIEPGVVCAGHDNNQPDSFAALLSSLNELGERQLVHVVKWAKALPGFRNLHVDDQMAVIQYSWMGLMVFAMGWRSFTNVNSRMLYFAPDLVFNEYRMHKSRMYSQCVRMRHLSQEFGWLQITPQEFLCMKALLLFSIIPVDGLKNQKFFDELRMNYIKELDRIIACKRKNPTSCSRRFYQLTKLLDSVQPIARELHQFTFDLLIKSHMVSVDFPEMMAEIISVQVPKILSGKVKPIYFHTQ

The next experiment has as its system ARA55 mRNA. Description: Northern blot of ARA55 mRNA in PC3 cells. The experiment is classed as cell-based, human. As to conditions: 5 ng/ml. The text has this: 360. The total RNA (25˜g) was fractionated on a 1% formaldehyde-MOPS agarose gel, transferred onto a Hybond-N nylon membrane (Amersham) and prehybridized. A probe corresponding to the 900 bp C-terminus of ARA55 or an ARA54-specific sequence was 32P-labeled in vitro using Random Primed DNA Labeling Kit (Boehringer-Mannheim) according to the manufacture's protocol and hybridized overnight. After washing, the blot was exposed and quantified by Molecular Dynamics PhosphorImager. β-actin was used to monitor the amount of total RNA in each lane.

The test system of experiment [4] is AR. Description: AR transactivation dual-luciferase assay with supervillin (Example 6). In kind it is cell-based, human. As to conditions: COS-1 cells; 10 nM DHT; MMTV-Luc. As for the experimental part: In AR transactivation activity assays, transfections were performed using SuperFect (Qiagen, Chatsworth, Calif.) following protocols described in manual provided by Qiagen. Briefly, cells were plated on 35 mm dishes and after 24 h were transfected using the SuperFect kit. The total DNA amount was adjusted to 2 μg with pSG5 or pEGFP vectors. The medium was changed to DMEM with 10% CD-FBS 2 h after transfection. After 24 h, the DMEM with 10% CD-FBS was changed again, and the cells were treated with various steroids. Cells were harvested after 24 h for dual-luciferase assay as described in protocol provided by Promega. At least three independent experiments were carried out in each case.
Target sequence in this assay (P10275 with tags, fused parts or gaps DEL79-80/DUP473-473): as the sequence (P10275 with tags, fused parts or gaps DEL79-80/DUP473-473) above

Data on nine molecules can be found in patent US20060270591A1, “Androgen receptor coregulators” (priority 2002, published 2006).

Regarding `C[C@]12CCC(=O)C[C@@H]1CC[C@@H]1[C@@H]2CC[C@]2(C)[C@@H](O)CC[C@@H]12` [DHT, 5α-dihydrotestosterone, reference compound], the LNCaP cell apoptosis result with LNCaP cell is on record as “promotes LNCaP cell apoptosis”. In addition, the “p27^(KIP1) protein expression” value with p27^KIP1 is reported as “induced p27^(KIP1) protein expression”. Consider `Oc1ccc(C=Cc2cc(O)cc(O)c2)cc1` [resveratrol], for which, in the experiment on ARA70 and AR, the “expression of ARA70 and AR transactivation” value is “repress the expression of ARA70 and AR transactivation”. “D1: AR peptide D1 (aa 551-600) within AR DBD (DYYFPPQKTCLICGDEASGCHYGALTCGSCKVFFKRAAEGKQKYLCASRN; UniProt P10275 551-600, looked up, fragment)”: the “effect on gelsolin enhanced AR activity” value in the experiment on AR [1] is “suppressed gelsolin enhanced AR activity”. Still for that read-out and setting: under “HI-2: AR peptide H1-2 (aa 655-695) within AR LBD (TTQKLTVSHIEGYECQPIFLNVLEAIEPGVVCAGHDNNQPD; left off: small tags and cut ends)” stands “suppressed gelsolin enhanced AR activity”. Consider “SRC-1: p160 steroid receptor coactivator-1”, for which, in experiment [2], the “effect on AR N-C interaction” value is “further enhance”. As to TGF-β [reference compound], the “increase of AR transcription activity” value with AR [3] came out at 70%. For the same molecule, the “induction of ARA55 mRNA” value in the experiment with ARA55 mRNA is on record as 2 fold. Turning to “bSV(831-1281): peptide containing a.a. 831-1281 of bSV, conjugated with EGFP”, the “AR transactivation with EGFP-bSV construct” value with AR [4] turned out to be 248 fold. For “bSV(1010-1792): domain within SV (a.a. 1010-1792), conjugated with EGFP”, the “effect of EGFP-bSV construct on AR transactivation” value in the experiment with AR [4] is on record as “only a marginal effect”. Take “gelsolin: multifunction actin-binding protein, AR coregulator”: the “inhibition of AR activity by HF with added gelsolin” value in the experiment on AR [1] (100 nM HF, normal 10% FCS medium) is 40%. Also, the “enhancement of AR transcription activity” value in the experiment with AR [1] (DU145 cells, 10 nM DHT) is 2-3 fold. Also, in the experiment with AR [1] (DU145 cells, absence of DHT), the “effect on AR transcription activity” value was “no significant effect”.
